What was measured:
[1] = Metabolic stability in CD1 mouse plasma assessed as half life measured after 48 hrs by LC-MS analysis; format: ADME, cell-free
[2] = Growth inhibition of mouse FL83B cells assessed as reduction in cell viability incubated for 72 hrs; format: toxicity, cell-based
[3] = Synergistic antiproliferative activity against human Osimertinib-resistant HCC827AR cell assessed as combination index at 1 nM incubated for 72 hrs in presence of 0.50 uM osimertinib by WST-1 assay; format: functional
[4] = test system: DMS-53; test: Growth inhibition of human DMS-53 cells assessed as reduction in cell viability incubated for 72 hrs; format: functional
[5] = test system: A549; test: Growth inhibition of human A549 cells assessed as reduction in cell viability incubated for 72 hrs; format: functional
[6] = Synergistic antiproliferative activity against human Osimertinib-resistant HCC827AR cell assessed as combination index at 1.5 nM incubated for 72 hrs in presence of 0.25 uM osimertinib by WST-1 assay; format: functional
[7] = test system: DMS-114; test: Synergistic antiproliferative activity against human DMS-114 cells assessed as combination index at 2 nM incubated for 72 hrs in presence of 4.8 uM venetoclax by WST-1 assay; format: functional
[8] = Synergistic antiproliferative activity against human Osimertinib-resistant HCC827AR cell assessed as combination index at 2 nM incubated for 72 hrs in presence of 1 uM osimertinib by WST-1 assay; format: functional
[9] = Synergistic antiproliferative activity against human Osimertinib-resistant HCC827AR cell assessed as combination index at 2.5 nM incubated for 72 hrs in presence of 2 uM osimertinib by WST-1 assay; format: functional
[10] = Synergistic antiproliferative activity against human Osimertinib-resistant HCC827AR cell assessed as combination index at 1.5 nM incubated for 72 hrs in presence of 1 uM osimertinib by WST-1 assay; format: functional
[11] = Synergistic antiproliferative activity against human Osimertinib-resistant HCC827AR cell assessed as combination index at 1 nM incubated for 72 hrs in presence of 1 uM osimertinib by WST-1 assay; format: functional
[12] = test system: DMS-53; test: Synergistic antiproliferative activity against human DMS-53 cells assessed as combination index at 1.5 nM incubated for 72 hrs in presence of […] venetoclax by WST-1 assay; format: functional
[13] = Synergistic antiproliferative activity against human Osimertinib-resistant HCC827AR cell assessed as combination index at 1.5 nM incubated for 72 hrs in presence of 2 uM osimertinib by WST-1 assay; format: functional
[14] = test system: DMS-53; test: Synergistic antiproliferative activity against human DMS-53 cells assessed as combination index at 0.5 nM incubated for 72 hrs in presence of […] venetoclax by WST-1 assay; format: functional
[15] = test system: DMS-114; test: Synergistic antiproliferative activity against human DMS-114 cells assessed as combination index at 2 nM incubated for 72 hrs in presence of 12 uM venetoclax by WST-1 assay; format: functional
[16] = test system: DMS-53; test: Synergistic antiproliferative activity against human DMS-53 cells assessed as combination index at 1.5 nM incubated for 72 hrs in presence of […] venetoclax by WST-1 assay; format: functional
[17] = test system: DMS-114; test: Synergistic antiproliferative activity against human DMS-114 cells assessed as combination index at 2 nM incubated for 72 hrs in presence of 2.4 uM venetoclax by WST-1 assay; format: functional
[18] = test system: DMS-114; test: Synergistic antiproliferative activity against human DMS-114 cells assessed as combination index at 1 nM incubated for 72 hrs in presence of 4.8 uM venetoclax by WST-1 assay; format: functional
[19] = Synergistic antiproliferative activity against human Osimertinib-resistant HCC827AR cell assessed as combination index at 2 nM incubated for 72 hrs in presence of 2 uM osimertinib by WST-1 assay; format: functional
[20] = test system: DMS-114; test: Synergistic antiproliferative activity against human DMS-114 cells assessed as combination index at 3 nM incubated for 72 hrs in presence of 4.8 uM venetoclax by WST-1 assay; format: functional
[21] = test system: DMS-114; test: Synergistic antiproliferative activity against human DMS-114 cells assessed as combination index at 1 nM incubated for 72 hrs in presence of 3.6 uM venetoclax by WST-1 assay; format: functional
[22] = test system: DMS-53; test: Synergistic antiproliferative activity against human DMS-53 cells assessed as combination index at 1 nM incubated for 72 hrs in presence of […] venetoclax by WST-1 assay; format: functional
[23] = test system: DMS-114; test: Synergistic antiproliferative activity against human DMS-114 cells assessed as combination index at 1 nM incubated for 72 hrs in presence of 2.4 uM venetoclax by WST-1 assay; format: functional
[24] = test system: HCT-116; test: Modulation of RNA splicing in human HCT-116 cells assessed as decrease in MCL-1L expression by Western blot analysis; format: functional, cell-based; conditions: dose 3-100 nM
[25] = Synergistic antiproliferative activity against human Osimertinib-resistant HCC827AR cell assessed as combination index at 1.5 nM incubated for 72 hrs in presence of 4 uM osimertinib by WST-1 assay; format: functional
[26] = test system: DMS-53; test: Synergistic antiproliferative activity against human DMS-53 cells assessed as combination index at 0.5 nM incubated for 72 hrs in presence of […] venetoclax by WST-1 assay; format: functional
[27] = test system: DMS-53; test: Synergistic antiproliferative activity against human DMS-53 cells assessed as combination index at 0.5 nM incubated for 72 hrs in presence of 25 uM venetoclax by WST-1 assay; format: functional
[28] = Synergistic antiproliferative activity against human Osimertinib-resistant HCC827AR cell assessed as combination index at 2.5 nM incubated for 72 hrs in presence of 4 uM osimertinib by WST-1 assay; format: functional
[29] = test system: HCT-116; test: Growth inhibition of human HCT-116 cells assessed as reduction in cell viability incubated for 72 hrs; format: functional
[30] = Synergistic antiproliferative activity against human Osimertinib-resistant HCC827AR cell assessed as combination index at 1 nM incubated for 72 hrs in presence of 4 uM osimertinib by WST-1 assay; format: functional
[31] = test system: DMS-53; test: Synergistic antiproliferative activity against human DMS-53 cells assessed as combination index at 1.5 nM incubated for 72 hrs in presence of 25 uM venetoclax by WST-1 assay; format: functional

In the case of COCO[C@@H](C)/C=C\C(=O)N[C@@H]1C[C@H](C)[C@H](C/C=C(C)/C=C/[C@H]2OC(C)(C)C[C@@]3(CO3)[C@@H]2O)O[C@@H]1C, the half-life [1] is reported as 13 h, the GI50 at 72 h [2] is reported as 5.7 nM and the CI [3] is reported as 1.42. It also gave a GI50 [4] of 2.7 nM, a GI50 [5] of 3.9 nM and a CI [6] of 0.92. The CI [7] was 0.66, the CI [8] was 1.2 and the CI [9] was 0.99. It also gave a CI [10] of 1.5, a CI [11] of 1.48 and a CI [12] of 0.67. For the same molecule, the CI [13] was 1.34, the CI [14] was 1.6 and the CI [15] was 0.44. It also gave a CI [16] of 0.72, a CI [17] of 0.69 and a CI [18] of 1.3. It also gave a CI [19] of 1.17, a CI [20] of 0.21 and a CI [21] of 1.34. For the same molecule, the CI [22] was 1.26, the CI [23] was 1.11 and the Activity [24] was “Dose-Dependent Effect”. For the same molecule, the CI [25] was 0.92, the CI [26] was 1.52 and the CI [27] was 1.33. For the same molecule, the CI [28] was 0.83, the GI50 [29] was 2 nM and the CI [30] was 0.93. It also gave a CI [31] of 0.7.

Source: ChEMBL document CHEMBL5370646, “Synthesis and Conformational Analysis of FR901464-Based RNA Splicing Modulators and Their Synergism in Drug-Resistant Cancers” (J Med Chem, 2023)
